We go through 1 compound from patent US9539223B2, “Methods for treating bacterial infections” (Neoculi Pty Ltd., priority 2013, dated 2017).

In data set [1] the test system is vancomycin-resistant Enterococcus spp. (VRE). Description: Minimum inhibitory concentration assay (CLSI), VRE isolates. The format is cell-based. The protocol: (§1) Minimum inhibitory concentration tests were performed according to CLSI Standards (CLSI 2008). […] The solutions were then serially diluted across the row, leaving 2 columns for positive and negative controls. A bacterial suspension was prepared by adding fresh colonies obtained from an overnight culture on Sheep Blood Agar (SBA) to a 9.1 g/L saline solution. This suspension was adjusted to a concentration of between 4×10^8 and 5×10^8 CFU/mL. Concentration of the suspension was determined by measuring optical density (OD) using a spectrophotometer at a wavelength of 600 nm where the correct concentration was determined to have an optical density of between 1.00 and 1.20. One milliliter of this suspension was added to 9 mL of saline before being added to all wells, excluding the negative control wells, in 10 μL volumes giving a final concentration of between 4×10^5 and 5×10^5 CFU/mL in each well. The tests were then incubated for 24 hours at 37° C. and then assessed both visually and using OD readings from a microplate reader at a wavelength of 600 nm. These tests were performed in duplicate but repeated if discrepancies were observed.
(§2) The minimum inhibitory concentration (MIC) was determined to be the lowest concentration of antibiotic that prevented growth of bacteria both visually and using OD readings. […]

In another data set the test system is Streptococcus pneumoniae. In words: Minimum inhibitory concentration assay (CLSI), Str. pneumoniae isolates. The format is cell-based. The protocol:
as §1, §2

Data set [2] has as its system RNA synthesis in S. aureus ATCC 29213. Description: RNA synthesis, [3H] uridine incorporation. The data set is classed as cell-based, Staphylococcus aureus. To be noted: 0.25 to 8-fold the MIC. The protocol:
Cells were grown at 35° C. overnight on Trypticase Soy agar. A colony from the plate was used to inoculate 10 ml of Mueller Hinton broth II (MHBII), and the culture was grown to early exponential growth phase (OD600=0.2 to 0.3) while incubating in a shaker at 35° C. and 200 rpm.
When cells reached early exponential phase, 100 μl of culture was added to triplicate wells containing various concentrations of test compound or control antibiotics (5 μl) at 20× the final concentration in 100% DMSO. A 5% DMSO treated culture served as the “no drug” control for all experiments. Cells were added in MHBII at 105% to account for the volume of drug added to each reaction or in M9 minimal medium for protein synthesis reactions. Following 15 min incubation at room temperature, either [3H] thymidine (DNA synthesis), [3H] uridine (RNA synthesis) or [3H] leucine (protein synthesis) was added at 0.5-1.0 μCi per reaction, depending on the experiment. Reactions were allowed to proceed at room temperature for 15-30 min and then stopped by adding 12 μl of cold 5% trichloroacetic acid (TCA) or 5% TCA/2% casamino acids (protein synthesis only). […] After washing three times with 5 ml of cold 5% TCA, the filters were rinsed two times with 5 ml 100% ethanol, allowed to dry, and then counted using a Beckman LS3801 liquid scintillation counter.

In a further data set the test system is S. pneumoniae strain D39. Description: MBC time kill studies (relative MBC at time points). The data set is classed as cell-based, Streptococcus pneumoniae. An excerpt:
MBC kill kinetics assays involved the preparation of three 96-well microtitre trays.

For data set [3], the system named is Staphylococcus pseudintermedius. In words: MIC testing (CLSI), S. pseudintermedius isolates. The format is cell-based.
The test system of data set [4] is E. coli ATCC 25922 spheroplasts. Description: Activity against spheroplasts (colony forming units over 24 hours). The data set is classed as cell-based, Escherichia coli. The procedure: E. coli ATCC 25922 was grown overnight on agar at 37° C. Two colonies from the overnight incubation were used to inoculate ˜20 ml of cation adjusted mueller hinton broth. Inoculated broth was incubated for 18 hours at 37° C. […] Formation of spheroplasts was checked using a phase contrast microscope.
Fifty microliters of DMSO only was added to the control test tube. Spheroplasts were incubated for 24 hours with 20 μl samples taken at 0, 2, 4, 6, 8 and 24 hours. Twenty microliter samples were serially diluted 1:10 and 10 ul samples of appropriate dilutions were spotted in triplicate onto brain heart infusion agar. Brain heart infusion agar was incubated at 37° C. for 48 hours and colonies were counted at 24 and 48 hours to determine the number of colony forming units.

In the next data set the test system is E. faecalis USA01. In words: Kill kinetics assay, E. faecalis USA01. The format is cell-based, Enterococcus faecalis. The procedure: S. aureus KC01 and E. faecalis USA01, not determined to be MRSA or VRE, respectively, were grown overnight on Columbia SBA at 37° C. A few colonies of bacteria were then suspended in CAMHB (cation-adjusted Mueller Hinton broth) and adjusted to OD600 of 0.08 to 0.10. The bacterial suspension was diluted 1:10. […] The tubes were incubated at 37° C., with constant shaking. In order to determine the number of viable bacteria present at various time points, a 100 μL aliquot was removed from each tube and diluted. Then, 100 μL of each dilution were spread onto colony count agar, in duplicate, and incubated for 48 h at 37° C. After 24 h the numbers of colonies present on each plate were counted and therefore the number of viable bacteria present in the original suspension enumerated. Plates were re-checked after 48 hours.

For data set [5] the following is noted: cited from earlier work.
The test system of data set [6] is methicillin-resistant and methicillin-susceptible Staphylococcus aureus. In words: Minimum bactericidal concentration, S. aureus clinical isolates.
Excerpt: The MBC was defined as the lowest drug concentration at which 99.95% of the original inoculum was eliminated.

Values after ≈ are worked out from the molar mass of the structure shown. Read-outs that look alike come from different tables or passages of the source.

As a reminder, the MIC50 is the lowest concentration that inhibits either 50% of growth or 50% of the strains tested, depending on the study. In general, MIC90 refers to an inhibitory concentration at the 90% level, which refers to growth in some studies and to a panel of isolates in others. Low readings indicate greater potency, high ones weaker potency. As to `N=C(N/N=C/c1ccc(Cl)cc1)N/N=C/c1ccc(Cl)cc1` [NCL812, 1,2-bis[(E)-(4-chlorophenyl)methylideneamino]guanidine], the MIC50 in data set [1] was determined as 4 µg/mL (≈ 12 µM); in the data set with Streptococcus pneumoniae it was 4 µg/mL (≈ 12 µM); in data set [3] (Staphylococcus pseudintermedius, 23 S. pseudintermedius isolates), 2 µg/mL (≈ 5.98 µM). Further, the MIC90 (in data set [1]; against Streptococcus pneumoniae) was 4 µg/mL (≈ 12 µM) each time. Also, the “inhibition of RNA synthesis” value in data set [2] is recorded as “very similar to the DNA synthesis study”. Further, the “consistent bactericidal effect elicited after” value with S. pneumoniae strain D39 (from initial exposure, relative MBC over 48 hr) stood at 6 h. In addition, the “decrease in MBC” value in the data set on S. pneumoniae strain D39 (within 5 hrs) is about 3 fold. For the same compound, the “susceptibility based on MICs” value in data set [3] (all 23 isolates (MSSP and MRSP)) was “susceptible”. In addition, the “concentration with significant decrease in colony forming units over time” value in data set [4] is at least 32 µg/mL. The “rise in bacterial numbers” value with E. faecalis USA01 (32 and 64 μg/mL, until the 6 h time point) is listed as about 1 log10. The “reduction in CFU/mL compared to the growth control” value in the data set with E. faecalis USA01 (2 h) amounted to 2 log10. Further, the “reduction in CFU/mL compared to the original bacterial numbers” value in the data set on E. faecalis USA01 (2 h) is recorded as “greater than 1 log10”. Further, the “bacterial numbers compared to the growth control” value with E. faecalis USA01 (24 h, all concentrations) was “increased to almost the same level as the growth control”. Besides, the solubility entry is “precipitation” in [5] (PBS) and “complete solubility” in data set [5] (water containing 4% DMSO, following initial dilution in 100% DMSO). The MBC range in [6] was in the range of 4 to 16 µg/mL. Further, the “isolates with MBC equivalent to the MIC” value in [6] was 83.33%.
